According to article PMC9817970 (Cancers, 2022):

Key:
Test in all cases: Kinase panel profiling
Format in all cases: biochemical
Details in all cases: 10 μM ATP
[1] = target: T1, DMPK2 (Homo sapiens, UniProt Q6DT37)
T1 construct: purchased Reaction Biology Corp
Protocol: (§1) Kinase panel profiling was conducted by Reaction Biology Corp. (San Diego, CA, USA). A single dose (1.0 μM) of 6r was tested against 371 recombinant human kinases in the presence of 10 μM ATP.

[2] = target: T2, MEK3 (Homo sapiens, UniProt P46734)
T2 construct: purchased Reaction Biology Corp
Protocol: as §1

[3] = target: T3, HGK/MAP4K4 (Homo sapiens, UniProt O95819)
T3 construct: purchased Reaction Biology Corp
Protocol: as §1

[4] = target: T4, SYK (Homo sapiens, UniProt P43405)
T4 construct: purchased Reaction Biology Corp
Protocol: as §1

[5] = target: T5, ERK2/MAPK1 (Homo sapiens, UniProt P28482)
T5 construct: purchased Reaction Biology Corp
Protocol: as §1

[6] = target: T6, MLK1/MAP3K9 (Homo sapiens, UniProt P80192)
T6 construct: purchased Reaction Biology Corp
Protocol: as §1

[7] = target: T7, SIK1 (Homo sapiens, UniProt P57059)
T7 construct: purchased Reaction Biology Corp
Protocol: as §1

[8] = target: T8, CAMK1a (Homo sapiens, UniProt Q14012)
T8 construct: purchased Reaction Biology Corp
Protocol: as §1

[9] = target: T9, TAOK3/JIK (Homo sapiens, UniProt Q9H2K8)
T9 construct: purchased Reaction Biology Corp
Protocol: as §1

[10] = target: T10, MEK5 (Homo sapiens, UniProt Q13163)
T10 construct: purchased Reaction Biology Corp
Protocol: as §1

[11] = target: T11, PHKg1 (Homo sapiens, UniProt Q16816)
T11 construct: purchased Reaction Biology Corp
Protocol: as §1

[12] = target: T12, GRK7 (Homo sapiens, UniProt Q8WTQ7)
T12 construct: purchased Reaction Biology Corp
T12 sequence (Q8WTQ7 whole entry): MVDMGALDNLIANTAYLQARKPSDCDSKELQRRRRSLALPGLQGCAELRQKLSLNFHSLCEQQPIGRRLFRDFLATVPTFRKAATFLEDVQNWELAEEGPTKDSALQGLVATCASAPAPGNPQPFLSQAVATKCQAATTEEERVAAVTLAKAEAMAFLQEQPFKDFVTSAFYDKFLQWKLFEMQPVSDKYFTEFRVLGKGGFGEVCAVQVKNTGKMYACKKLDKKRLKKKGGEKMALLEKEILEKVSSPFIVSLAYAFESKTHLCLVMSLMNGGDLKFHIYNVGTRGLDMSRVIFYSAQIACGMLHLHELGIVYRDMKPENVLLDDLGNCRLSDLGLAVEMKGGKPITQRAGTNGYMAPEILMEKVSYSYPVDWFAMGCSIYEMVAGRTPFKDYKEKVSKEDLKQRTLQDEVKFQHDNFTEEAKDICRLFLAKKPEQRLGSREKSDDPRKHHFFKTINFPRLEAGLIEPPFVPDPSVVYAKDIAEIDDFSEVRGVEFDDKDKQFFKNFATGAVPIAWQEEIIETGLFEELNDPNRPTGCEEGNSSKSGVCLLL
Protocol: as §1

[13] = target: T13, PKCzeta (Homo sapiens, UniProt Q05513)
T13 construct: purchased Reaction Biology Corp
Protocol: as §1

[14] = target: T14, CDK6/cyclin D1 (Homo sapiens, UniProt Q00534)
T14 construct: purchased Reaction Biology Corp
Protocol: as §1

[15] = target: T15, GRK3 (Homo sapiens, UniProt P35626)
T15 construct: purchased Reaction Biology Corp
Protocol: as §1

[16] = target: T16, FLT4/VEGFR3 (Homo sapiens, UniProt P35916)
T16 construct: purchased Reaction Biology Corp
Protocol: as §1

[17] = target: T17, P38g (Homo sapiens, UniProt P53778)
T17 construct: purchased Reaction Biology Corp
T17 sequence (P53778 whole entry): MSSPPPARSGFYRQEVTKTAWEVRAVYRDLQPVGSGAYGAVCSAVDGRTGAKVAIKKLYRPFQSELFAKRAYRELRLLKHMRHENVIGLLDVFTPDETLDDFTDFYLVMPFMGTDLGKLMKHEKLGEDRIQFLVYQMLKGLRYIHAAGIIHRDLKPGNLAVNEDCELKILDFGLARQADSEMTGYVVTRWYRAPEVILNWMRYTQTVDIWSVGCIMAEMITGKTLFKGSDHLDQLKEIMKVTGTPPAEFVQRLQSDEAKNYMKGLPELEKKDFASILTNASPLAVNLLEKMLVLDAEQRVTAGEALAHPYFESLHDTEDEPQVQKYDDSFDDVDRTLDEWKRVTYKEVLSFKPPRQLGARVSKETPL
Protocol: as §1

[18] = target: T18, PKCb1 (Homo sapiens, UniProt P05771)
T18 construct: purchased Reaction Biology Corp
T18 sequence (P05771 whole entry): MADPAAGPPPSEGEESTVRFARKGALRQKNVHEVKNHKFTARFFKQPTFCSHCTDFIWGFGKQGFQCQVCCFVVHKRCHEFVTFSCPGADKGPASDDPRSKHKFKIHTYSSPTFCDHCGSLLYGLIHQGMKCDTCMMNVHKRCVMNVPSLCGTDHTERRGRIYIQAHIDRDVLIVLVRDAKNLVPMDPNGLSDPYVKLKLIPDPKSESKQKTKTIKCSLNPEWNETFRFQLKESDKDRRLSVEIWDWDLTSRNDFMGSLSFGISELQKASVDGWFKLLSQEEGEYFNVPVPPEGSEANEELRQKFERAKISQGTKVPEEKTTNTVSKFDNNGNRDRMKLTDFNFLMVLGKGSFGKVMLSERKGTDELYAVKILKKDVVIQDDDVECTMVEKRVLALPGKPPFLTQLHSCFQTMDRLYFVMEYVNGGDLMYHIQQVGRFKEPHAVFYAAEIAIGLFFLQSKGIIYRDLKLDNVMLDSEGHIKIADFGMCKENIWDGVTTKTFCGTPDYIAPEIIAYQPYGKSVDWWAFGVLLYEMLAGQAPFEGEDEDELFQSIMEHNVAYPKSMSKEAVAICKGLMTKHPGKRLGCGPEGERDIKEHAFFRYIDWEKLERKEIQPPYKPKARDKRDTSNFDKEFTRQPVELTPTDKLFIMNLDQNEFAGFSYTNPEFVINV
Protocol: as §1

[19] = target: T19, CAMK4 (Homo sapiens, UniProt Q16566)
T19 construct: purchased Reaction Biology Corp
Protocol: as §1

[20] = target: T20, VRK1 (Homo sapiens, UniProt Q99986)
T20 construct: purchased Reaction Biology Corp
Protocol: as §1

[21] = target: T21, MYLK4 (Homo sapiens, UniProt Q86YV6)
T21 construct: purchased Reaction Biology Corp
Protocol: as §1

[22] = target: T22, PASK (Homo sapiens, UniProt Q96RG2)
T22 construct: purchased Reaction Biology Corp
Protocol: as §1

[23] = target: T23, p70S6K/RPS6KB1 (Homo sapiens, UniProt P23443)
T23 construct: purchased Reaction Biology Corp
T23 sequence (P23443 whole entry): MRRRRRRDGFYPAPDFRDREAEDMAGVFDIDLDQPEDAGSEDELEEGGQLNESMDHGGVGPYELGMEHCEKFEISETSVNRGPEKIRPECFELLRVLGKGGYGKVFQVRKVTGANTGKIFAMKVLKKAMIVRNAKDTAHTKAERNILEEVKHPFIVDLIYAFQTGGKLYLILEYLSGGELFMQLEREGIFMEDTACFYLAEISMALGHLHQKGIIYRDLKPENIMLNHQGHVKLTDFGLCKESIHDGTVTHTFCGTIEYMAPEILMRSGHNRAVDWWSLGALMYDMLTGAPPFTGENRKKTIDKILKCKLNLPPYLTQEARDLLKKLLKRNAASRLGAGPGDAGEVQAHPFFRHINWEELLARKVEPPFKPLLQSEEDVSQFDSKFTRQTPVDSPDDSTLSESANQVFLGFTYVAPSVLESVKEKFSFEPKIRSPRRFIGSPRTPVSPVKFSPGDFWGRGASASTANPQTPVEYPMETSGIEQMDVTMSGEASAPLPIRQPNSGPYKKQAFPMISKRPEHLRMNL
Protocol: as §1

[24] = target: T24, FAK/PTK2 (Homo sapiens, UniProt Q05397)
T24 construct: purchased Reaction Biology Corp
Protocol: as §1

[25] = target: T25, PKD2/PRKD2 (Homo sapiens, UniProt Q9BZL6)
T25 construct: purchased Reaction Biology Corp
Protocol: as §1

[26] = target: T26, MEKK6 (Homo sapiens, UniProt O95382)
T26 construct: purchased Reaction Biology Corp
Protocol: as §1

[27] = target: T27, STK32B/YANK2 (Homo sapiens, UniProt Q9NY57)
T27 construct: purchased Reaction Biology Corp
T27 sequence (Q9NY57 whole entry): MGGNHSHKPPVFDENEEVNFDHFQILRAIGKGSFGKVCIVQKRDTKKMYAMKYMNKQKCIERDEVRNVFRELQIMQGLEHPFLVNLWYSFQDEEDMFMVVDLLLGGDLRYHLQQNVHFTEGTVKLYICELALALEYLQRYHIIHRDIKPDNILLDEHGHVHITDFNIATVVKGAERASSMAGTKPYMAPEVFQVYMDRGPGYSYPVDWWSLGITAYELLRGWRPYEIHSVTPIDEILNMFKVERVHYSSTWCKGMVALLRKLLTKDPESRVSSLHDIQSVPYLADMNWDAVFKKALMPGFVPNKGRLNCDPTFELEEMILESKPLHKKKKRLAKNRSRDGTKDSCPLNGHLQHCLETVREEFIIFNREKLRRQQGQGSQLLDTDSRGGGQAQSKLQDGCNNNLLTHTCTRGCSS
Protocol: as §1

[28] = target: T28, KSR2 (Homo sapiens, UniProt Q6VAB6)
T28 construct: purchased Reaction Biology Corp
Protocol: as §1

[29] = target: T29, PKAcg (Homo sapiens, UniProt P22612)
T29 construct: purchased Reaction Biology Corp
Protocol: as §1

[30] = target: T30, BRSK1 (Homo sapiens, UniProt Q8TDC3)
T30 construct: purchased Reaction Biology Corp
T30 sequence (Q8TDC3 whole entry): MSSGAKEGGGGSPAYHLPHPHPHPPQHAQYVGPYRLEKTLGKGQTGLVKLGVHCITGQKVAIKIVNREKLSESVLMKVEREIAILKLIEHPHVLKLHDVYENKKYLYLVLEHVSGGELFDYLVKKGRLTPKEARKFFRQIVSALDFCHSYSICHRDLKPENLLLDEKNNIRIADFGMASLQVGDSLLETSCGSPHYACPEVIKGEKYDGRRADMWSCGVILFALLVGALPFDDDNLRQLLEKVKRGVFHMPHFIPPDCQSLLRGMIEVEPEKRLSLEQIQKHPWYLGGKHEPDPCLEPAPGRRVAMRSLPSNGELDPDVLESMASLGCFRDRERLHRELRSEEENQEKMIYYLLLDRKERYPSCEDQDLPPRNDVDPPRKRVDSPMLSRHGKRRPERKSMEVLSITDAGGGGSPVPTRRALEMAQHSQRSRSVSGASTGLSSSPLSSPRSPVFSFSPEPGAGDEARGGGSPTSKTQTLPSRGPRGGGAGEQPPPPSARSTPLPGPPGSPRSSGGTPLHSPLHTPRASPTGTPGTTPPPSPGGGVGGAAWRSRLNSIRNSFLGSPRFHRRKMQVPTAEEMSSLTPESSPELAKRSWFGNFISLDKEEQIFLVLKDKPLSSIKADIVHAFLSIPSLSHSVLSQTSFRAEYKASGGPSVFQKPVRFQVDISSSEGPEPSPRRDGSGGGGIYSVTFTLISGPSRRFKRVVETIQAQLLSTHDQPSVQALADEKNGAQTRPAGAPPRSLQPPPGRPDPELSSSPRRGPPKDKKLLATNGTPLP
Protocol: as §1

[31] = target: T31, EPHA2 (Homo sapiens, UniProt P29317)
T31 construct: purchased Reaction Biology Corp
Protocol: as §1

[32] = target: T32, BMPR2 (Homo sapiens, UniProt Q13873)
T32 construct: purchased Reaction Biology Corp
T32 sequence (Q13873 27-1038): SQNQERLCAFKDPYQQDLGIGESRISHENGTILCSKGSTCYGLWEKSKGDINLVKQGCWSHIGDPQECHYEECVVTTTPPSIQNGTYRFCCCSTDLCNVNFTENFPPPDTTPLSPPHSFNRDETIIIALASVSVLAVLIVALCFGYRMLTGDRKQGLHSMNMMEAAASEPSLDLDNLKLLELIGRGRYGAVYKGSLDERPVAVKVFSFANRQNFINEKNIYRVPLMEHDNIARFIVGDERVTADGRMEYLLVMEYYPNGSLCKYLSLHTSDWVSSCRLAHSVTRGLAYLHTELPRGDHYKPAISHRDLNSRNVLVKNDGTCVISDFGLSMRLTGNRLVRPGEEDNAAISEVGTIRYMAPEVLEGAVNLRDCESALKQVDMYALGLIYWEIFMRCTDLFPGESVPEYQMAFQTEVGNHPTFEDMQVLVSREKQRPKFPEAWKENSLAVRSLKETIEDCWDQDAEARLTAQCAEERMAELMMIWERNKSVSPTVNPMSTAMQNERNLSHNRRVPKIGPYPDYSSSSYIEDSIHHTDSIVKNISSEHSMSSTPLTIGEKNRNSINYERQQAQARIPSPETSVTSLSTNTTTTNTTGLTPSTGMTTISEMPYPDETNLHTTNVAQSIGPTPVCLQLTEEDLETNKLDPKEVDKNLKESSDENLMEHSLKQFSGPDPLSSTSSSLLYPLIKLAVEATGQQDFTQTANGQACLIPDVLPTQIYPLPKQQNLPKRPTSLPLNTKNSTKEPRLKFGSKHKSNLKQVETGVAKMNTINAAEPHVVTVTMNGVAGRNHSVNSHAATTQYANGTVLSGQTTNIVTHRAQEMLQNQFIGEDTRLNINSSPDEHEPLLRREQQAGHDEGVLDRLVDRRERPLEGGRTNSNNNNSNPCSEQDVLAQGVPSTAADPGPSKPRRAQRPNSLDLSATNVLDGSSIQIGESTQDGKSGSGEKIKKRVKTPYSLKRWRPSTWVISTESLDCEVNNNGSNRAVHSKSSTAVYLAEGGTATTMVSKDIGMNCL
Protocol: as §1

[33] = target: T33, CDK17/cyclin Y (PCTK2) (Homo sapiens, UniProt Q00537)
T33 construct: purchased Reaction Biology Corp
Protocol: as §1

[34] = target: T34, AKT2 (Homo sapiens, UniProt P31751)
T34 construct: purchased Reaction Biology Corp
Protocol: as §1

[35] = target: T35, ERN1/IRE1 (Homo sapiens, UniProt O75460)
T35 construct: purchased Reaction Biology Corp
Protocol: as §1

[36] = target: T36, YES/YES1 (Homo sapiens, UniProt P07947)
T36 construct: purchased Reaction Biology Corp
Protocol: as §1

[37] = target: T37, ZIPK/DAPK3 (Homo sapiens, UniProt O43293)
T37 construct: purchased Reaction Biology Corp
Protocol: as §1

[38] = target: T38, GSK3a (Homo sapiens, UniProt P49840)
T38 construct: purchased Reaction Biology Corp
Protocol: as §1

[39] = target: T39, ERBB4/HER4 (Homo sapiens, UniProt Q15303)
T39 construct: purchased Reaction Biology Corp
Protocol: as §1

[40] = target: T40, MST2/STK3 (Homo sapiens, UniProt Q13188)
T40 construct: purchased Reaction Biology Corp
T40 sequence (Q13188 whole entry): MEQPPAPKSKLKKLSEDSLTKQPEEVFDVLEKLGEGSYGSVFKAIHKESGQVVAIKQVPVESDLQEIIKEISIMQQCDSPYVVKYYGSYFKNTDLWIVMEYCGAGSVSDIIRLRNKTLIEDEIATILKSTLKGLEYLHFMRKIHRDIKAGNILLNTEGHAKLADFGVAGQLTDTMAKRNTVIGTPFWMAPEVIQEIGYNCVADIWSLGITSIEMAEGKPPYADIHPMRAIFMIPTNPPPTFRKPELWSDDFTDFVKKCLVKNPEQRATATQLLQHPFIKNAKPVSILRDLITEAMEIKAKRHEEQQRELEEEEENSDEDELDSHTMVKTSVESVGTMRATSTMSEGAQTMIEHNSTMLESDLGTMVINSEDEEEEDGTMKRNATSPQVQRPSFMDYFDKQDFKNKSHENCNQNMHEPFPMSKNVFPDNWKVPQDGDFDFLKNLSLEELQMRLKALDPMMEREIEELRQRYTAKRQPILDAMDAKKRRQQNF
Protocol: as §1

[41] = target: T41, PLK3 (Homo sapiens, UniProt Q9H4B4)
T41 construct: purchased Reaction Biology Corp
Protocol: as §1

[42] = target: T42, DYRK3 (Homo sapiens, UniProt O43781)
T42 construct: purchased Reaction Biology Corp
Protocol: as §1

Cc1ccc(NC(=O)c2ccc(CN3CCN(C)CC3)c(C(F)(F)F)c2)cc1-c1cnc2sc(N)nc2c1 [6r]
inhibition at 1 µM [1]: 8%
inhibition at 1 µM [2]: 5.2%
inhibition at 1 µM [3]: 0%
inhibition at 1 µM [4]: 3.2%
inhibition at 1 µM [5]: 13.5%
inhibition at 1 µM [6]: 0%
inhibition at 1 µM [7]: 1.1%
inhibition at 1 µM [8]: 8%
inhibition at 1 µM [9]: 17.8%
inhibition at 1 µM [10]: 6.5%
inhibition at 1 µM [11]: 19.6%
inhibition at 1 µM [12]: 7.5%
inhibition at 1 µM [13]: 0%
inhibition at 1 µM [14]: 9.1%
inhibition at 1 µM [15]: 0%
inhibition at 1 µM [16]: 77.8%
inhibition at 1 µM [17]: 0%
inhibition at 1 µM [18]: 10.5%
inhibition at 1 µM [19]: 3.2%
inhibition at 1 µM [20]: 1.6%
inhibition at 1 µM [21]: 4.6%
inhibition at 1 µM [22]: 4.6%
inhibition at 1 µM [23]: 8.4%
inhibition at 1 µM [24]: 7.8%
inhibition at 1 µM [25]: 28.6%
inhibition at 1 µM [26]: 8%
inhibition at 1 µM [27]: 0%
inhibition at 1 µM [28]: 0%
inhibition at 1 µM [29]: 29.2%
inhibition at 1 µM [30]: 0%
inhibition at 1 µM [31]: 77.4%
inhibition at 1 µM [32]: 20.6%
inhibition at 1 µM [33]: 3.9%
inhibition at 1 µM [34]: 14%
inhibition at 1 µM [35]: 8%
inhibition at 1 µM [36]: 77%
inhibition at 1 µM [37]: 6.7%
inhibition at 1 µM [38]: 7.4%
inhibition at 1 µM [39]: 73.9%
inhibition at 1 µM [40]: 0%
inhibition at 1 µM [41]: 4.8%
inhibition at 1 µM [42]: 0%
